Data set [1] deals with murine airway smooth muscle cells. The experiment in a line: cAMP production in airway smooth muscle cells, fluorescent detection assay. It is filed as cell-based. As to conditions: 15 minutes, read-out: EC50, stimulation of cAMP synthesis. (In general: cAMP levels reflect the balance of adenylyl cyclase and phosphodiesterase activity.)
Protocol: For these studies, cells are grown to near-confluence in 96-well plates. After washing with PBS, cells were treated for 15 minutes with either PBS vehicle or the indicated concentration of isoproterenol. The reaction is then halted using the supplied stop buffer, after which the resultant sample is processed for fluorescent detection per the manufacturer's instructions. The cAMP content for each sample is determined by extrapolating values to a standard curve prepared with known concentrations of cAMP.
For data set [2] the following is noted: human. As to the method: Exhaled breath condensate (“EBC”) samples. EBC samples are collected during 10 min of quiet breathing through a single-use disposable RTube collector (Respiratory Research, Inc., Charlottesville, Va., USA) while subjects are wearing a nose clip. The aluminum sleeve of the device is cooled to an initial temperature of −20° C. prior to collection. After collection, a plunger is used to pool the condensed material within the tube into a single sample (about 1.0 ml). Samples are stored in the reaction tube at a temperature of −80° C. until thawed and processed for analysis.
Mass Spectrometry. The experiment is performed on a Thermo Fisher Scientific LTQ-FT, a hybrid instrument consisting of a linear ion trap and a Fourier transform ion cyclotron resonance mass spectrometer. Liquid chromatography separation of the sample components utilizes a Waters XBridge™ C18 3.5 μm 2.1×100 mm column, Finnigan Surveyor MS pump, and Finnigan Micro AS autosampler. A 200 μL/min gradient elution of water and acetonitrile, both containing 0.1% formic acid, occurs as follows: 5% to 32% acetonitrile in first eight minutes followed by a rapid rise to 95% acetonitrile within the next minute, held at 95% for an additional seven minutes. […]

Data set [3] deals with T1, MPO (Homo sapiens, UniProt P05164). Kind of data set: EPR of ascorbate radicals during oxidation of β2-agonists by MPO/H2O2. Format: biochemical. Also on record: Myeloperoxidase (MPO) from human leucocytes (lyophilized powder); purchased Axxora, LLC (San Diego, Calif.); host or cells: human leucocytes (natural source). As to conditions: 100 μM ascorbate, MPO 0.01 U/250 μL, H2O2 39 μM, pH 7.0. The method, then: (§1) The sample is transferred to a flat aqueous EPR cell and recording is started one minute after initiation of the reaction. The spectra of DMPO adducts are recorded using the same parameters as above but the sweeping rate is 8 mT/41.92 s. The EPR spectra of ascorbate radicals are obtained using microwave power 5 mW, modulation amplitude 0.05 mT, scan rate 4 mT/41.92 s. EPR spectra shown are an average of 5 scans and represent results of a typical experiment.
Formation of Asc^•− during oxidation of β2-agonists by MPO/H2O2 in the presence of 100 μM AscH^− is investigated by EPR. […] Spectrum A is the EPR of 100 μM ascorbate without additives. Sprectrun B is the EPR spectrum of 100 μM ascorbate in the presence of MPO (0.01 U/250 μL) and H2O2 (39 μM). Spectra C and D are the EPR spectra of 100 μM ascorbate in the presence of MPO (0.01 U/250 μ), H2O2 (39 μM), and 40 μM and 100 μM of salbutamol, respectily. Spectrum E is the EPR spectrum of 100 μM ascorbate in the presence of MPO (0.01 U/250 μL), H2O2 (39 μM) and 20 μM of fenoterol. All reactions occur in pH 7.0 buffer (50 mM) containing DTPA (0.2 mM).

The target in data set [4] is T1, MPO. Kind of data set: EPR spin trapping of GS radicals (DMPO/SG adduct) with MPO/H2O2. It is filed as biochemical. The arrangement: Myeloperoxidase (MPO) from human leucocytes (lyophilized powder); purchased Axxora, LLC (San Diego, Calif.). As to conditions: 2 μM fenoterol, 4 mM GSH, 18 mM DMPO, pH 7.0. As to the method:
as §1
Spectrum e is the same reaction as spectrum d with the exception that no GSH is used.
The EPR spectrum generated in the presence of 2 μM fenoterol (FIG. 3, section B, spectrum a) is approximately a two-fold more intense than that observed in the presence of 80 μM salbutamol (FIG. 3, section A, spectrum b). This confirms the higher reactivity of a metabolite(s) derived from fenoterol. […] The higher stimulatory action of fenoterol, when compared to that of salbutamol, implies that the compound's resorcinol moiety may play a dominating role in the interaction with GSH. The proposed cycle of redox reactions involving fenoterol, AscH^− and GSH is depicted in reaction B, presented earlier.

The next data set addresses T2, LPO (Bos taurus, UniProt P80025).
T2 construct: Lactoperoxidase (LPO) from bovine milk (EC 1.11.1.7); purchased Sigma-Aldrich Co. (St. Louis, Mo.); host or cells: bovine milk (natural source)
The experiment in a line: Nitration of salbutamol by LPO/H2O2/NO2−, A410. It is filed as biochemical, bovine. Conditions: 100 μM salbutamol, 67 nM LPO, 4 mM H2O2, 3.5 mM NaNO2. As to the method: Spectrophotometric Measurements. Spectra are measured using an Agilent diode array spectrophotometer model 8453 (Agilent Technologies, Inc., Santa Clara, Calif.). Nitration of salbutamol is studied by measuring absorption spectra at designated time points following the start of the reaction. Samples are prepared in 100 mM phosphate buffers (pH 7.0). All buffers contained DTPA (100 μM) or are pretreated with Chelex-100 before use, and measurements are performed at ambient temperature of 20° C. Typically, the reaction is started by the addition of a small aliquot of H2O2 or the desired peroxidase. Time course measurements are carried out following changes in absorbance at 410 nm in 30 second intervals versus absorbance at 800 nm, where none of the compounds absorb.
Ascorbate (AscH^−) is an effective natural antioxidant protecting airways from oxidative injury. Cross et al., (1994) Environ. Health Perspect. 102 (suppl. 10):185-191. Its concentration in the respiratory tract lining fluid is estimated to be near 100 μM (Id.). We examine the effect of AscH^− on nitration of 100 μM salbutamol by 67 nM LPO, 4 mM H2O2, and 3.5 mM of NaNO2 by measuring absorption at 410 nm. […] The duration of the lag period depends on AscH^− concentration. […] See, e.g., Reszka et al. (1999) Free Radic. Biol. & Med. 26:669-678.
As noted earlier, methimazole is an antithyroid drug, an effective inhibitor of LPO activity. 100 μM of salbutamol is reacted with 73 nM LPO, 3.5 mM NaNO2, and 4 mM H2O2 at pH buffer 7.0 in the presence of 0, 27, 55, and 109 μM methimazole (shown in FIG. 9, section A, traces a-d, respectively). Traces c and d also indicate by arrow when additional LPO is added to the system. […] In contrast to effects exerted by AscH^− or SCN^−, methimazole-dependent inhibition is permanent and is probably due to inactivation of the enzyme, since a second dose of LPO reactivates the process (FIG. 9, section A, trace c).
Dapsone, an anti-inflammatory and anti-leprotic agent, is a potent inhibitor of LPO and MPO. See, e.g., Kettle et al. (1991) Biochem. Pharmacol. 41(10):1485-1492; Bozeman et al. (1992) Biochem. Pharmacol. 44(2):553-563. 97 μM of salbutamol is reacted with 65 nM LPO, 3.4 mM NaNO2, and 4 mM H2O2 at pH buffer 7.0 in the presence of 0, 2.5, 5, 10, 50, and 100 μM dapsone (shown in FIG. 10, traces a-f, respectively). The arrows in traces d and e of FIG. 10 indicate where additional LPO is added to the system. […] Dapsone at 50 μM inhibited nitration by approximately 86%. Given the high concentrations of NaNO2 and H2O2 used in this system, dapsone appears to be a potent blocker of nitration.
The extent of nitration is expressed as a change in ΔA410 versus control (dapsone omitted) taken as 100% after 10, 30, and 60 minute reactions for LPO, MPO, and EPO nitrating systems, respectively. Results equal the means±SE of at least two measurements. In the LPO system, 100 μM of salbutamol, 3.4 mM of NaNO2, 4 mM of H2O2, and 65 nM of LPO is used. In the MPO system, 50 μM of salbutamol, 5.0 mM of NaNO2, 5 mM of H2O2, and 0.2 U/mL of MPO is used. In the EPO system, 50 μM of salbutamol, 5 mM of NaNO2, 2 mM of H2O2, and 0.075 U/mL of EPO is used. All reactions were carried out in pH 7.0 phosphate buffer containing DMSO (5% v/v). The term “nitrophenols” includes nitrosalbutamol (N-Sal) and salbutamol-derived nitrophenol (N—ArOH).

Data set [5] concerns the target T1, MPO. The experiment in a line: Oxidation of β2-agonists by MPO/H2O2, spectrophotometric ΔA315. It is filed as biochemical. The arrangement: Myeloperoxidase (MPO) from human leucocytes (lyophilized powder); purchased Axxora, LLC (San Diego, Calif.); host or cells: human leucocytes (natural source). Conditions: 100 μM AscH−, 200 mU/mL MPO, 50 μM H2O2. The method, then:
Spectrophotometric Measurements. Spectra are measured using an Agilent diode array spectrophotometer model 8453 (Agilent Technologies, Inc., Santa Clara, Calif.). Oxidation of β2-agonists is studied by measuring absorption spectra at designated time points following reaction starts. Samples are prepared in 50 mM acetate buffer (pH 5.0), 50 and 100 mM phosphate buffers (pH 7.0 and 8.0) and 100 mM Tris/HCl (pH 9.19). All buffers contain DTPA (100 and 200 μM) and measurements are performed at an ambient temperature of 20° C. The reaction is started by the addition of a small aliquot of H2O2 (2, 5 or 10 μL), or glucose oxidase (1 μL), if glucose/glucose oxidase was used to generate H2O2, to a sample containing a studied compound, peroxidase and, if required, an inhibiting co-factor. Time course measurements are carried out following changes in absorbance at 315 nm in 15 second intervals versus absorbance at 800 nm, where none of the compounds absorb. The 315 nm wavelength is chosen because β2-agonists' oxidation products absorb intensely near 315 nm, and because it is close to the absorption maximum of tyrosine dimers.
The concentration of AscH^− in airway fluid was estimated to be near 100 μM (Id.), so we use concentrations within this physiological range. […] AscH^− affects oxidation of salbutamol and fenoterol similarly, causing delay in the net oxidation of both drugs. A315 increases after a lag period, the duration of which depends on AscH^− concentration. Net oxidation of the drugs occurs only when AscH^− is consumed. […] This is understandable given that the concentration of H2O2 was only 50 μM and the peroxide was used to oxidize both the drugs and AscH^−. […] The proposed mechanisms of inhibition are reactions A and B, shown below, which reveal that recovery of the drug occurs at the expense of AscH^−, which is oxidized to the ascorbate radical (A^•−).
[…]. The extent of oxidation is expressed as ΔA315±SE versus control (in %) during 22 minutes of reaction at 20° C. Values are the mean of at least duplicate determinations.

Structures can show the parent of a compound that is named as a salt.

As a reminder, the EC50 is the concentration giving half of the maximal effect.

T1 sequence (P05164 279-745 limits assumed): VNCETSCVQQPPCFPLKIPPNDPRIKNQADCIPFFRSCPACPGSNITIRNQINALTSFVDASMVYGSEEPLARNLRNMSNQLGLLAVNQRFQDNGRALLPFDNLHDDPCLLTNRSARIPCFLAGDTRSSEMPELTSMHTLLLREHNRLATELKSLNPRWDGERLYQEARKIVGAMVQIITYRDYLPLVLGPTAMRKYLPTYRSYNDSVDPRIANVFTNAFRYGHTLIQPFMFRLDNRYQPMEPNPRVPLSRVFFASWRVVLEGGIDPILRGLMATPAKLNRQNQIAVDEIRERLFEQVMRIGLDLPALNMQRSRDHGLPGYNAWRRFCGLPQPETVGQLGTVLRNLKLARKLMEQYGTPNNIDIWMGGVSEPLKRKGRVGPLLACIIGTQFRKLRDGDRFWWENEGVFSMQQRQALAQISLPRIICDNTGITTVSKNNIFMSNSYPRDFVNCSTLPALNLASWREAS
T1 sequence (P05164 165-273 limits assumed): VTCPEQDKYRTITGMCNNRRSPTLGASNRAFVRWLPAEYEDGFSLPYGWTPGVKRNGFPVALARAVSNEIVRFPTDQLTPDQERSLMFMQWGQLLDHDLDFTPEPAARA

As to Salbutamol hemisulfate, the EC50 in data set [1] came out at 24.8 nM. For the same compound, the “Salbutamol transformation in vivo (nitrophenol of m/z 255.13 in breath condensate)” value in data set [2] is “undergoes oxidation and nitration”. The “EPR spectrum of ascorbate radical, more intense than with MPO/H2O2 alone” value on MPO [3] (40 μM salbutamol) is reported as “approximately 76%”; on MPO [3] (100 μM salbutamol), approximately 117%.

With `CC(Cc1ccc(O)cc1)NCC(O)c1cc(O)cc(O)c1` (stereo not shown) [fenoterol, fenoterol hydrobromide], the “EPR spectrum of DMPO/SG adduct, intensity relative to 80 μM salbutamol” value at MPO [4] is listed as “two-fold”. The “EPR spectrum of ascorbate radical, more intense than with MPO/H2O2 alone” value on MPO [3] (20 μM fenoterol) turned out to be 270%.

As for `O=C1O[C@H]([C@@H](O)CO)C(O)=C1O` [AscH^−, ascorbic acid], the “Nitration of salbutamol by LPO/H2O2/NO2− (A410 versus time)” value is reported as “only transiently inhibits” on LPO (AscH− at near physiological concentrations (55, 88, 109 μM)) and “completely prevents” at LPO (ascorbate ˜1 mM). In addition, the “Oxidation of fenoterol by MPO/H2O2 (A315 versus time)” value on MPO [5] (200 μM fenoterol) is recorded as “completely inhibited”. Further, the “Oxidation of salbutamol by MPO/H2O2 (A315 versus time)” value at MPO [5] (1 mM salbutamol) was “completely inhibited”.

The values are drawn from US20120093947A1, “METHOD OF TREATING REACTIVE AIRWAY DISEASE” (UNITED STATES DEPARTMENT OF VETERANS AFFAIRS, priority 2009, published 2012).
